# Experimental data taken from US6423711B1 (dated 2002).
# Where a name gives a salt, the structure may show the parent alone.
row,melting point,SMILES
1,> 220 °C (dec.),Cl.O=C(NCCO)C1CCN(c2cc(-c3ccccc3)nc3ccsc23)CC1
2,180 to 182 °C (dec.),CN(C)CCNC(=O)C1CCN(c2cc(-c3ccc(F)cc3)nc3ccsc23)CC1.Cl
3,303 to 305 °C (dec.),Cl.NC(=O)C1CCN(c2cc(-c3ccccc3)nc3ccsc23)CC1
4,163 to 165 °C (dec.),Cl.O=C(NCc1ccccc1)C1CCN(c2cc(-c3ccccc3)nc3ccsc23)CC1
5,220 to 222 °C (dec.),CCNC(=O)C1CCN(c2cc(-c3ccc(F)cc3)nc3ccsc23)CC1.Cl
6,170 to 172 °C (dec.),CCCCNC(=O)C1CCN(c2cc(-c3ccccc3)nc3ccsc23)CC1.Cl
7,> 210 °C (dec.),O=C(NCC1CCCO1)C1CCN(c2cc(-c3ccccc3)nc3ccsc23)CC1 (centres unmarked) (as salt: hydrochloride)
8,179 to 180 °C (dec.),COC(C)CNC(=O)C1CCN(c2cc(-c3ccc(F)cc3)nc3ccsc23)CC1 (centres unmarked) (as salt: hydrochloride)
9,179 to 181 °C (dec.),O=C(NC1CCCC1)C1CCN(c2cc(-c3ccccc3)nc3ccsc23)CC1 (as salt: hydrochloride)
10,> 303 °C (dec.),NC(=O)C1CCN(c2cc(-c3ccc(F)cc3)nc3ccsc23)CC1 (as salt: hydrochloride)
11,159 to 160 °C (dec.),CCCNC(=O)C1CCN(c2cc(-c3ccccc3)nc3ccsc23)CC1.Cl
12,> 95 °C (dec.),CCNCCNC(=O)C1CCN(c2cc(-c3ccccc3)nc3ccsc23)CC1.Cl
13,235 to 238 °C (dec.),Cl.O=C(NCCCCl)N1CCN(c2cc(-c3ccc(F)cc3)nc3ccsc23)CC1
14,198 to 200 °C (dec.),Cl.O=C(NCCO)C1CCN(c2cc(-c3ccc(F)cc3)nc3ccsc23)CC1
15,> 230 °C (dec.),CCNC(=O)C1CCN(c2cc(-c3cccc(OC)c3)nc3ccsc23)CC1.Cl
16,195 to 198 °C,c1ccc(-c2cc(N3CCOCC3)c3sccc3n2)cc1 (as salt: hydrochloride)
17,> 198 °C,CCNC(=O)N1CCN(c2cc(-c3cccc(OC)c3)nc3ccsc23)CC1.Cl
18,270 to 272 °C (dec.),CC(C)(C)NC(=O)C1CCN(c2cc(-c3ccccc3)nc3ccsc23)CC1.Cl
19,> 150 °C (dec.),CN(C)CCNC(=O)C1CCN(c2cc(-c3ccccc3)nc3ccsc23)CC1.Cl
20,178 to 180 °C (dec.),CCOc1ccc(-c2cc(N3CCC(C(=O)NCc4ccccn4)CC3)c3sccc3n2)cc1.Cl
21,194 to 195 °C,NC(=O)C1CCN(c2cc(-c3ccccc3F)nc3ccsc23)CC1
22,199 to 201 °C (dec.),Cl.O=C(NC1CC1)C1CCN(c2cc(-c3ccccc3)nc3ccsc23)CC1

row,melting point,SMILES
1,147 to 149 °C (dec.),COCCCNC(=O)C1CCN(c2cc(-c3ccccc3)nc3ccsc23)CC1.Cl
2,> 260 °C (dec.),CNC(=O)C1CCN(c2cc(-c3ccccc3)nc3ccsc23)CC1.Cl
3,115 to 118 °C (dec.),Cl.NCCNC(=O)C1CCN(c2cc(-c3ccc(F)cc3)nc3ccsc23)CC1
4,236 to 238 °C (dec.),Cl.O=C(NCc1cccc(F)c1)C1CCN(c2cc(-c3ccccc3)nc3ccsc23)CC1
5,133 to 135 °C (dec.),COc1cccc(-c2cc(N3CCC(C(N)=O)CC3)c3sccc3n2)c1.Cl
6,176 to 178 °C (dec.),O=C(NCc1ccncc1)C1CCN(c2cc(-c3ccccc3)nc3ccsc23)CC1 (as salt: hydrochloride)
7,177 to 178 °C (dec.),Cc1ccc(CNC(=O)C2CCN(c3cc(-c4ccccc4)nc4ccsc34)CC2)cc1.Cl
8,251 to 253 °C,NC(=O)C1CCN(c2cc(-c3ccc(F)cc3)nc3ccsc23)CC1
9,211 to 213 °C (dec.),CCOc1ccc(-c2cc(N3CCC(C(N)=O)CC3)c3sccc3n2)cc1.Cl
10,> 227 °C (dec.),CCNC(=O)C1CCN(c2cc(-c3ccncc3)nc3ccsc23)CC1.Cl
11,157 to 160 °C (dec.),COCCNC(=O)C1CCN(c2cc(-c3ccccc3)nc3ccsc23)CC1 (as salt: hydrochloride)
12,> 240 °C (dec.),CCNC(=O)N1CCN(c2cc(-c3ccccc3)nc3ccsc23)CC1.Cl
13,176 to 178 °C (dec.),Cl.NCCNC(=O)C1CCN(c2cc(-c3ccccc3)nc3ccsc23)CC1
14,215 to 217 °C,COc1cccc(-c2cc(N3CCN(C(=O)c4ccncc4)CC3)c3sccc3n2)c1 (as salt: hydrochloride)
15,> 230 °C (dec.),Cl.O=C(NCc1cccs1)C1CCN(c2cc(-c3ccccc3)nc3ccsc23)CC1
16,> 174 °C (dec.),COc1cccc(-c2cc(N3CCN(C(=O)c4ccc(F)cc4)CC3)c3sccc3n2)c1 (as salt: hydrochloride)
17,> 147 °C (dec.),CCNC(=O)N1CCN(c2cc(-c3ccc(F)cc3)nc3ccsc23)CC1.Cl
18,> 220 °C (dec.),COC(=O)C1CCN(c2cc(-c3ccccc3)nc3sccc23)CC1.Cl
19,185 to 190 °C,CNC(=O)N1CCN(c2cc(-c3ccccc3)nc3ccsc23)CC1.Cl
20,207 to 209 °C (dec.),CCCNC(=O)C1CCN(c2cc(-c3ccc(F)cc3)nc3ccsc23)CC1.Cl
21,> 210 °C (dec.),CCNC(=O)C1CCN(c2cc(-c3ccccc3)nc3cccnc23)CC1.Cl
22,190 to 192 °C (dec.),Cl.O=C(NCc1ccc(F)cc1)C1CCN(c2cc(-c3ccccc3)nc3ccsc23)CC1
